Data from patent US9340590B2 (priority 2011, dated 2016).
Where two headings read alike, the source gives them in different places. Positions of bridges follow the written chain, without caps; N, C: chain ends. Residues, ends and D or L forms follow the SMILES beside them.

Assays:
hNav1.5 = hNav1.5 (Homo sapiens, UniProt Q14524); assay: cell-based
hNav1.3 = hNav1.3 (Homo sapiens, UniProt Q9NY46); assay: cell-based; settings: IonWorks Quattro, read-out: IWQ Use Nav1.3
[1] = IonWorks Quattro, Use, read-out: IWQ Use Nav1.5

hNav1.5, sequence (Q14524 whole entry, looked up): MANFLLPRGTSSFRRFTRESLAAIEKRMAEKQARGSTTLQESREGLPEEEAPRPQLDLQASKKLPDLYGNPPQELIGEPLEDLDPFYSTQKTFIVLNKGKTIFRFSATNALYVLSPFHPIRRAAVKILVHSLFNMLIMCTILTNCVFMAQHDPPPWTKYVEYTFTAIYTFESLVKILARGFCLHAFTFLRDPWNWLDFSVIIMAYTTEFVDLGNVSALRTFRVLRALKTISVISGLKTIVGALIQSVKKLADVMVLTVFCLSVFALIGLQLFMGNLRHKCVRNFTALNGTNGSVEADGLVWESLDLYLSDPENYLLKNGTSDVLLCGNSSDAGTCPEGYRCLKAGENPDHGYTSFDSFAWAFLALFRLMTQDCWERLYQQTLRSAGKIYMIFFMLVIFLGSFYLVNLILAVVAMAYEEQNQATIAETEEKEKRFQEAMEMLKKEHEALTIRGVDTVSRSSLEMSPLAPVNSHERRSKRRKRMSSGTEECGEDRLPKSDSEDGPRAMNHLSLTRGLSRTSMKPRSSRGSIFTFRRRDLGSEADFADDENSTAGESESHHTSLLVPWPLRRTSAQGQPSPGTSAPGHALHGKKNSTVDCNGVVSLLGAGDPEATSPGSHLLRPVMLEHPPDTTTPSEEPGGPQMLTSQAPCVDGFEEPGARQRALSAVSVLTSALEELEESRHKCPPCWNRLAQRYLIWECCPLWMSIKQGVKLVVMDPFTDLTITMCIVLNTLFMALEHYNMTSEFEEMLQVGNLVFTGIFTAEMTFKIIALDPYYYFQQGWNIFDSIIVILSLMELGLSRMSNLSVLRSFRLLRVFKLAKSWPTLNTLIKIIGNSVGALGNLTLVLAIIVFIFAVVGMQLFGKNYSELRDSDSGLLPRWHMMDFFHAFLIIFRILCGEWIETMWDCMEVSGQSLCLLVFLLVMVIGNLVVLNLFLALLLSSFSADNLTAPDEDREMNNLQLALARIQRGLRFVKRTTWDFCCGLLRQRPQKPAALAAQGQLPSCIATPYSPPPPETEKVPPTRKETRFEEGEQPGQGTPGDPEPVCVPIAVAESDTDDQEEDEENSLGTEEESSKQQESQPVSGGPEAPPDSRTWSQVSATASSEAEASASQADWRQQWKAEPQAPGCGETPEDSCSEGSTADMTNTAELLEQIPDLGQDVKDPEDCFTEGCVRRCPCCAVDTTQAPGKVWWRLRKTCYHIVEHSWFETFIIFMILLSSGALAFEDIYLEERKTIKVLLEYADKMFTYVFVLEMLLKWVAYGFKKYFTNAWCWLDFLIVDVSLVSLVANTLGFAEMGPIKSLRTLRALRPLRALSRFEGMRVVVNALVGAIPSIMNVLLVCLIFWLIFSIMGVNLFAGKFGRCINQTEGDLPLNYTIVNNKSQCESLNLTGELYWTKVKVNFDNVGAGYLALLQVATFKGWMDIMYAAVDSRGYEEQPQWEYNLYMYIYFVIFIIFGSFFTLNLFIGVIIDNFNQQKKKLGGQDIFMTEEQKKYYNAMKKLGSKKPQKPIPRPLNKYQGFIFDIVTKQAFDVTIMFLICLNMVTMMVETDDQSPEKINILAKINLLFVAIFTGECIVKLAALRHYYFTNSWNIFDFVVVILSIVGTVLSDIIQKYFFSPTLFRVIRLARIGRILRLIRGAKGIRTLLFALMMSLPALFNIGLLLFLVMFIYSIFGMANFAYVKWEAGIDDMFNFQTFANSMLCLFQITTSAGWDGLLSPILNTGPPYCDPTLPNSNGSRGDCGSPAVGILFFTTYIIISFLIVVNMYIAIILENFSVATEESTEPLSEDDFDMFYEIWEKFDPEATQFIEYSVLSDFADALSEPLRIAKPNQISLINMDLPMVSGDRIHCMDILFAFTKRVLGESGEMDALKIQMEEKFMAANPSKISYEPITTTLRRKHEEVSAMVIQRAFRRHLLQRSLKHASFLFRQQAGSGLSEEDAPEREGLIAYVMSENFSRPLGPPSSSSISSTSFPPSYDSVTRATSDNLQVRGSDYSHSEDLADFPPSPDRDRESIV
hNav1.3, sequence (Q9NY46 whole entry, looked up): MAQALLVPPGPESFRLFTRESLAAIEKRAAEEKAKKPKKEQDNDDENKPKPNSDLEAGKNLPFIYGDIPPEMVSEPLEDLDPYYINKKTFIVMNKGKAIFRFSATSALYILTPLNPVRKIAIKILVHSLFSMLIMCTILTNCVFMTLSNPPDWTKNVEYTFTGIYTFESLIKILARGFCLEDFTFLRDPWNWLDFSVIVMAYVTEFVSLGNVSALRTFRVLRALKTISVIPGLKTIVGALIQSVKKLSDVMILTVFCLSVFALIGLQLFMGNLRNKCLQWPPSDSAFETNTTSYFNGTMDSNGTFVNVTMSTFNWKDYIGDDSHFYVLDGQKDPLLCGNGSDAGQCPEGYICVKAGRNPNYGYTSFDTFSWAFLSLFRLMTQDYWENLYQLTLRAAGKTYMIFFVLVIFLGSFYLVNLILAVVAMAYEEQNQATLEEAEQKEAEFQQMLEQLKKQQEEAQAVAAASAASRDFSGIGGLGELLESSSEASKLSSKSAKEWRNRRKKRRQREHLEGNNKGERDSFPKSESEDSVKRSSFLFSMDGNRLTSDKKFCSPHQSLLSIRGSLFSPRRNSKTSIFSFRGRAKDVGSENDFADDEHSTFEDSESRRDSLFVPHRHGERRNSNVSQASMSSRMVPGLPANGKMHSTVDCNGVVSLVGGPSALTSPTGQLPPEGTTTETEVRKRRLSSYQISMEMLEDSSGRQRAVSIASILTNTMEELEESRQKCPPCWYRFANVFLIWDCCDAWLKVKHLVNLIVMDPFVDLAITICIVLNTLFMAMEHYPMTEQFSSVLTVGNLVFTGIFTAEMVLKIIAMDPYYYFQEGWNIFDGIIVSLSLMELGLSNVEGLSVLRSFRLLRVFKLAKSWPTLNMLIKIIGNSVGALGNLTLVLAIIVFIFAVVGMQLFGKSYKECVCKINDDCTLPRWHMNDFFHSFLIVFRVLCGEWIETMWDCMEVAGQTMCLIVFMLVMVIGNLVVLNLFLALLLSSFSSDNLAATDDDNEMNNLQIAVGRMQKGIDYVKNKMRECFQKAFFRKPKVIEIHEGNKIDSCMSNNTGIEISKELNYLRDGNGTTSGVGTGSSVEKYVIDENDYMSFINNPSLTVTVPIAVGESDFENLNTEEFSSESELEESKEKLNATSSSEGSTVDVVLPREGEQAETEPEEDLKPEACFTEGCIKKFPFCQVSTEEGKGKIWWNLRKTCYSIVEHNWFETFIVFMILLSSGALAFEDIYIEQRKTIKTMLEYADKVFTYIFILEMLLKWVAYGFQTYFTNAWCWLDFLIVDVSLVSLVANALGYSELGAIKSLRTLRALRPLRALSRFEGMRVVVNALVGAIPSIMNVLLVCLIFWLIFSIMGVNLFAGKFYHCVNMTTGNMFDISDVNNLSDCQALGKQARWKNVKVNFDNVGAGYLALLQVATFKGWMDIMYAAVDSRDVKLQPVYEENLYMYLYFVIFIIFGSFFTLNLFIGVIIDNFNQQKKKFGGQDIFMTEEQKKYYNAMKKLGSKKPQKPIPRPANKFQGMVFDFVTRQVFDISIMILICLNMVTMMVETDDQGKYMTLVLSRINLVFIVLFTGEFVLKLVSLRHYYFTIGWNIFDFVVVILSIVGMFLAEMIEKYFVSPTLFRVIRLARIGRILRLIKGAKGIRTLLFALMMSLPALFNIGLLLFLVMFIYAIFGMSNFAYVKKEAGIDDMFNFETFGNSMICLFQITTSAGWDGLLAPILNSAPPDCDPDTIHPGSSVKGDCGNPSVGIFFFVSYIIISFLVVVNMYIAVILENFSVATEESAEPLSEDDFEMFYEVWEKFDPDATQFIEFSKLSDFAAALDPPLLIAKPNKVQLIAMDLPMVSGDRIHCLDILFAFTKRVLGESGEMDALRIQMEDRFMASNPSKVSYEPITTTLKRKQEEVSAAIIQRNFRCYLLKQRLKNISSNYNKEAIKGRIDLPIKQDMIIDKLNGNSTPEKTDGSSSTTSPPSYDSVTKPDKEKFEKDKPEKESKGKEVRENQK

## CC[C@H](C)[C@@H]1NC(=O)[C@@H]2CSSC[C@@H]3NC(=O)[C@H](C(C)C)NC(=O)[C@H](CC(C)C)NC(=O)[C@H](CC(N)=O)NC(=O)[C@@H]4CCCN4C(=O)[C@H](CCCNC(=N)N)NC(=O)[C@H](CSSC[C@H](NC(=O)[C@@H](N)CC(=O)O)C(=O)N[C@@H](CC(C)C)C(=O)NCC(=O)N[C@@H](Cc4ccccc4)C(=O)N[C@@H](CCSC)C(=O)N[C@@H](CCCNC(=N)N)C(=O)N[C@@H](CCCCN)C(=O)N2)NC(=O)[C@H](CSSC[C@@H](C(=O)N[C@@H](CCCCN)C(=O)N[C@@H](Cc2ccc(O)cc2)C(=O)N[C@@H](CCCNC(=N)N)C(=O)N[C@@H](Cc2ccccc2)C(N)=O)NC(=O)[C@H](Cc2c[nH]c4ccccc24)NC(=O)[C@H](CCCCN)NC(=O)[C@H](Cc2cnc[nH]2)NC(=O)[C@H]([C@@H](C)O)NC(=O)[C@H](CCCNC(=N)N)NC(=O)[C@H](CO)NC3=O)NC(=O)[C@H](CCCCN)NC(=O)[C@H](CC(=O)O)NC(=O)[C@H](CC(N)=O)NC(=O)[C@H](CC(=O)O)NC(=O)[C@@H]2CCCN2C1=O [compound 74] (H-DCLGFMRKCIPDNDKCCRPNLVCSRTHKWCKYRF-NH2; disulfide 2-17, 9-23, 16-30)
hNav1.5; Table 26, IonWorks Quattro, use, […], read-out: IWQ Use Nav1.5
  IC50: 9.55 µM
hNav1.3; Table 26, use, […]
  IC50: 0.05 µM

## CC[C@H](C)[C@@H]1NC(=O)[C@@H]2CSSC[C@@H]3NC(=O)[C@H](CCC(=O)O)NC(=O)[C@H](CC(C)C)NC(=O)[C@H](CC(N)=O)NC(=O)[C@@H]4CCCN4C(=O)[C@H](CCCNC(=N)N)NC(=O)[C@H](CSSC[C@H](NC(=O)[C@@H](N)CC(=O)O)C(=O)N[C@@H](CC(C)C)C(=O)NCC(=O)N[C@@H](Cc4ccccc4)C(=O)N[C@@H](CCSC)C(=O)N[C@@H](CCCNC(=N)N)C(=O)N[C@@H](CCCCN)C(=O)N2)NC(=O)[C@H](CSSC[C@@H](C(=O)N[C@@H](CCCCN)C(=O)N[C@@H](Cc2ccc(O)cc2)C(=O)N[C@H](C(=O)N[C@@H](Cc2ccccc2)C(N)=O)C(C)C)NC(=O)[C@H](Cc2c[nH]c4ccccc24)NC(=O)[C@H](CCCCN)NC(=O)[C@H](Cc2cnc[nH]2)NC(=O)[C@H]([C@@H](C)O)NC(=O)[C@H](CCCNC(=N)N)NC(=O)[C@H](CO)NC3=O)NC(=O)[C@H](CCCCN)NC(=O)[C@H](CC(=O)O)NC(=O)[C@H](CC(N)=O)NC(=O)[C@H](CC(=O)O)NC(=O)[C@@H]2CCCN2C1=O [compound 102] (H-DCLGFMRKCIPDNDKCCRPNLECSRTHKWCKYVF-NH2; disulfide 2-17, 9-23, 16-30)
hNav1.5; [1]
  IC50: 20.8 µM
hNav1.3; Use
  IC50: 2.14 µM

## CC[C@H](C)[C@@H]1NC(=O)[C@@H]2CSSC[C@@H]3NC(=O)[C@H](C(C)C)NC(=O)[C@H](CC(C)C)NC(=O)[C@H](CC(N)=O)NC(=O)[C@@H]4CCCN4C(=O)[C@H](CCCNC(=N)N)NC(=O)[C@H](CSSC[C@H](NC(=O)[C@@H](N)CC(=O)O)C(=O)N[C@@H](CC(C)C)C(=O)NCC(=O)N[C@@H](Cc4ccccc4)C(=O)N[C@@H](CCSC)C(=O)N[C@@H](CCCNC(=N)N)C(=O)N[C@@H](CCCCN)C(=O)N2)NC(=O)[C@H](CSSC[C@@H](C(=O)N[C@@H](CCCCN)C(=O)N[C@@H](Cc2ccc(O)cc2)C(=O)N[C@H](C(=O)N[C@@H](Cc2ccccc2)C(=O)O)C(C)C)NC(=O)[C@H](Cc2c[nH]c4ccccc24)NC(=O)[C@H](CCCCN)NC(=O)[C@H](Cc2cnc[nH]2)NC(=O)[C@H]([C@@H](C)O)NC(=O)[C@H](CCCNC(=N)N)NC(=O)[C@H](CO)NC3=O)NC(=O)[C@H](CCCCN)NC(=O)[C@H](CC(=O)O)NC(=O)[C@H](CC(N)=O)NC(=O)[C@H](CC(=O)O)NC(=O)[C@@H]2CCCN2C1=O [compound 107]
hNav1.5; IonWorks Quattro, use-dependent, […], read-out: IWQ Use Nav1.5
  IC50: 9.44 µM
hNav1.3; use-dependent, […]
  IC50: 0.54 µM

## CC[C@H](C)[C@@H]1NC(=O)[C@@H]2CSSC[C@@H]3NC(=O)[C@H](C(C)C)NC(=O)[C@H](CC(C)C)NC(=O)[C@H](CC(N)=O)NC(=O)[C@@H]4CCCN4C(=O)[C@H](CCCNC(=N)N)NC(=O)[C@H](CSSC[C@H](NC(=O)[C@@H](N)CC(=O)O)C(=O)N[C@@H](CC(C)C)C(=O)NCC(=O)N[C@@H](Cc4ccccc4)C(=O)N[C@@H](CCSC)C(=O)N[C@@H](CCCNC(=N)N)C(=O)N[C@@H](CCCCN)C(=O)N2)NC(=O)[C@H](CSSC[C@@H](C(=O)N[C@@H](CCCCN)C(=O)N[C@@H](Cc2ccc(O)cc2)C(=O)N[C@H](C(=O)N[C@@H](Cc2ccccc2)C(N)=O)C(C)C)NC(=O)[C@H](Cc2ccc(O)cc2)NC(=O)[C@H](CCCCN)NC(=O)[C@H](Cc2c[nH]cn2)NC(=O)[C@H]([C@@H](C)O)NC(=O)[C@H](CCCNC(=N)N)NC(=O)[C@H](CO)NC3=O)NC(=O)[C@H](CCCCN)NC(=O)[C@H](CC(=O)O)NC(=O)[C@H](CC(N)=O)NC(=O)[C@H](CC(=O)O)NC(=O)[C@@H]2CCCN2C1=O [compound 113] (H-DCLGFMRKCIPDNDKCCRPNLVCSRTHKYCKYVF-NH2; disulfide 2-17, 9-23, 16-30)
hNav1.5; Table 24, IonWorks Quattro, use, […], read-out: IWQ Use Nav1.5
  IC50: 9.49 µM
hNav1.3; Table 24, use, […]
  IC50: 4.03 µM

## CC[C@H](C)[C@@H]1NC(=O)[C@@H]2CSSC[C@@H]3NC(=O)[C@H](C(C)C)NC(=O)[C@H](CC(C)C)NC(=O)[C@H](CC(N)=O)NC(=O)[C@@H]4CCCN4C(=O)[C@H](CCCNC(=N)N)NC(=O)[C@H](CSSC[C@H](NC(=O)[C@@H](N)CC(=O)O)C(=O)N[C@@H](CC(C)C)C(=O)NCC(=O)N[C@@H](Cc4ccccc4)C(=O)N[C@@H](CCSC)C(=O)N[C@@H](CCCNC(=N)N)C(=O)N[C@@H](CCCCN)C(=O)N2)NC(=O)[C@H](CSSC[C@@H](C(=O)N[C@@H](CCCCN)C(=O)N[C@@H](Cc2ccc(O)cc2)C(=O)N[C@H](C(=O)N[C@@H](Cc2ccccc2)C(N)=O)C(C)C)NC(=O)[C@H](Cc2c[nH]c4ccccc24)NC(=O)[C@H](CCCCN)NC(=O)[C@H](Cc2cnc[nH]2)NC(=O)[C@H]([C@@H](C)O)NC(=O)[C@H](CCCNC(=N)N)NC(=O)[C@H](C)NC3=O)NC(=O)[C@H](CCCCN)NC(=O)[C@H](CC(=O)O)NC(=O)[C@H](CC(N)=O)NC(=O)[C@H](CC(=O)O)NC(=O)[C@@H]2CCCN2C1=O [compound 142] (H-DCLGFMRKCIPDNDKCCRPNLVCARTHKWCKYVF-NH2; disulfide 2-17, 9-23, 16-30)
hNav1.5; [1]
  IC50: 8.2 µM
hNav1.3; Use
  IC50: 0.25 µM

## CC[C@H](C)[C@@H]1NC(=O)[C@@H]2CSSC[C@@H]3NC(=O)[C@H](C(C)C)NC(=O)[C@H](CC(C)C)NC(=O)[C@H](CC(N)=O)NC(=O)[C@@H]4CCCN4C(=O)[C@H](CCC(=O)O)NC(=O)[C@H](CSSC[C@H](NC(=O)[C@@H](N)CC(=O)O)C(=O)N[C@@H](CC(C)C)C(=O)NCC(=O)N[C@@H](Cc4ccccc4)C(=O)N[C@@H](CCSC)C(=O)N[C@@H](CCCNC(=N)N)C(=O)N[C@@H](CCCCN)C(=O)N2)NC(=O)[C@H](CSSC[C@@H](C(=O)N[C@@H](CCCCN)C(=O)N[C@@H](Cc2ccc(O)cc2)C(=O)N[C@H](C(=O)N[C@@H](Cc2ccccc2)C(N)=O)C(C)C)NC(=O)[C@H](Cc2c[nH]c4ccccc24)NC(=O)[C@H](CCCCN)NC(=O)[C@H](Cc2cnc[nH]2)NC(=O)[C@H]([C@@H](C)O)NC(=O)[C@H](CCCNC(=N)N)NC(=O)[C@H](CO)NC3=O)NC(=O)[C@H](CCCCN)NC(=O)[C@H](CC(=O)O)NC(=O)[C@H](CC(N)=O)NC(=O)[C@H](CC(=O)O)NC(=O)[C@@H]2CCCN2C1=O [compound 148] (H-DCLGFMRKCIPDNDKCCEPNLVCSRTHKWCKYVF-NH2; disulfide 2-17, 9-23, 16-30)
hNav1.5; [1]
  IC50: 14.6 µM
hNav1.3; Use
  IC50: 0.21 µM

## CC[C@H](C)[C@@H]1NC(=O)[C@@H]2CSSC[C@@H]3NC(=O)[C@H](C(C)C)NC(=O)[C@H](CC(C)C)NC(=O)[C@H](CC(N)=O)NC(=O)[C@H](CCCNC(=N)N)NC(=O)[C@H](CCCNC(=N)N)NC(=O)[C@H](CSSC[C@H](NC(=O)[C@@H](N)CC(=O)O)C(=O)N[C@@H](CC(C)C)C(=O)NCC(=O)N[C@@H](Cc4ccccc4)C(=O)N[C@@H](CCSC)C(=O)N[C@@H](CCCNC(=N)N)C(=O)N[C@@H](CCCCN)C(=O)N2)NC(=O)[C@H](CSSC[C@@H](C(=O)N[C@@H](CCCCN)C(=O)N[C@@H](Cc2ccc(O)cc2)C(=O)N[C@H](C(=O)N[C@@H](Cc2ccccc2)C(N)=O)C(C)C)NC(=O)[C@H](Cc2c[nH]c4ccccc24)NC(=O)[C@H](CCCCN)NC(=O)[C@H](Cc2cnc[nH]2)NC(=O)[C@H]([C@@H](C)O)NC(=O)[C@H](CCCNC(=N)N)NC(=O)[C@H](CO)NC3=O)NC(=O)[C@H](CCCCN)NC(=O)[C@H](CC(=O)O)NC(=O)[C@H](CC(N)=O)NC(=O)[C@H](CC(=O)O)NC(=O)[C@@H]2CCCN2C1=O [compound 157] (H-DCLGFMRKCIPDNDKCCRRNLVCSRTHKWCKYVF-NH2; disulfide 2-17, 9-23, 16-30)
hNav1.5; [1]
  IC50: 6.16 µM
hNav1.3; Use
  IC50: 0.06 µM

## CC[C@H](C)[C@@H]1NC(=O)[C@@H]2CSSC[C@@H]3NC(=O)[C@H](CCCNC(=N)N)NC(=O)[C@H](CC(C)C)NC(=O)[C@H](CC(N)=O)NC(=O)[C@@H]4CCCN4C(=O)[C@H](CCCNC(=N)N)NC(=O)[C@H](CSSC[C@H](NC(=O)[C@@H](N)CC(=O)O)C(=O)N[C@@H](CC(C)C)C(=O)NCC(=O)N[C@@H](Cc4ccccc4)C(=O)N[C@@H](CCSC)C(=O)N[C@@H](CCCNC(=N)N)C(=O)N[C@@H](CCCCN)C(=O)N2)NC(=O)[C@H](CSSC[C@@H](C(=O)N[C@@H](CCCCN)C(=O)N[C@@H](Cc2ccc(O)cc2)C(=O)N[C@H](C(=O)N[C@@H](Cc2ccccc2)C(N)=O)C(C)C)NC(=O)[C@H](Cc2c[nH]c4ccccc24)NC(=O)[C@H](CCCCN)NC(=O)[C@H](Cc2cnc[nH]2)NC(=O)[C@H]([C@@H](C)O)NC(=O)[C@H](CCCNC(=N)N)NC(=O)[C@H](CO)NC3=O)NC(=O)[C@H](CCCCN)NC(=O)[C@H](CC(=O)O)NC(=O)[C@H](CC(N)=O)NC(=O)[C@H](CC(=O)O)NC(=O)[C@@H]2CCCN2C1=O [compound 158] (H-DCLGFMRKCIPDNDKCCRPNLRCSRTHKWCKYVF-NH2; disulfide 2-17, 9-23, 16-30)
hNav1.5; IWQ Use Nav1.5 (μM)
  IC50: 8.2 µM
hNav1.3; Use
  IC50: 0.03 µM
